Measurements taken from the Deep4Chem optical property database.
Values belong to the compound of their own block, whether it stands above or below them.

Experiment: photoluminescence quantum yield (fraction); solvent given as SMILES

photoluminescence quantum yield (in C1CCOC1): 0.16
SMILES: CCC1(CC)c2ccccc2-c2c1c1c(c3c2C(CC)(CC)c2cc(/C=C/c4cccs4)ccc2-3)C(CC)(CC)c2cc(/C=C/c3cccs3)ccc2-1

photoluminescence quantum yield (in C1CCCCC1): 0.84 | photoluminescence quantum yield (in CC#N): 0.005 | photoluminescence quantum yield (in CO): 0.003 | photoluminescence quantum yield (in ClC(Cl)Cl): 0.88
SMILES: CN(C)c1ccc(C#Cc2ccc(-c3nc(C#N)c(C#N)n3C)cc2)cc1

photoluminescence quantum yield (in CC#N): 0.311
SMILES: CC(C)(C)Nc1oc(C=Cc2ccccc2)c(C(=O)OC(C)(C)C)c1C(=O)OC(C)(C)C

photoluminescence quantum yield (in ClCCl): 0.634
SMILES: CCCCCCCCOc1cc(/C=C/c2ccncc2)c(OCCCCCCCC)cc1/C=C/c1ccncc1

photoluminescence quantum yield (in ClC(Cl)Cl): 0.5
SMILES: O=c1c2cc3ccc4cccc5ccc(c2c(=O)n1-c1ccccc1)c3c45

photoluminescence quantum yield (in CC#N): 0.018
SMILES: CC1[C@@H]2[C@@H]1[C@]1(c3ccccc3)N=NC2(c2ccccc2)C2C3C=CC(C3)C21 (some centres not stated)

photoluminescence quantum yield (in ClCCl): 0.43
SMILES: CCN(CC)c1ccc2cc(-c3nc4cc(C(=O)Nc5ccc(C)cc5[N+](=O)[O-])ccc4o3)c(=O)oc2c1

photoluminescence quantum yield (in C1CCOC1): 0.42
SMILES: F[B-]1(F)n2c(/C=C/c3ccc(C(=C(c4ccccc4)c4ccccc4)c4ccccc4)cc3)ccc2C(c2ccccc2)=C2C=CC(/C=C/c3ccc(C(=C(c4ccccc4)c4ccccc4)c4ccccc4)cc3)=[N+]21

photoluminescence quantum yield (in ClC(Cl)Cl): 0.074
SMILES: FC(F)(F)c1ccc2oc3nc4oc5ccc(-n6c7ccccc7c7ccccc76)cc5c4cc3c2c1

photoluminescence quantum yield (in C1CCCCC1): 0.37 | photoluminescence quantum yield (in CCOC(C)=O): 0.1
SMILES: CC1=[N+]2C(=C(c3ccc(N(c4ccccc4)c4ccccc4)cc3)c3ccc(C)n3[B-]2(F)F)C=C1c1cc2n(c1)[B-](F)(F)[N+]1=CC=CC1=C2c1c(C)cc(C)cc1C

photoluminescence quantum yield (in ClCCl): 0.047
SMILES: CCOC(=O)/N=c1/oc2ccc(OC)cc2cc1C#N

photoluminescence quantum yield (in CCCCCC): 0.34
SMILES: COc1ccc2c(c1)N(c1ccccc1-c1ccccc1)c1cc3c(cc1=N2)Oc1c(cc(C(C)(C)C)cc1C(C)(C)C)N=3

More lines, now with the values behind:

SMILES: O=C(O)COc1ccc2[nH]c3c(c2c1)CCCC3=O
photoluminescence quantum yield (in C1CCOC1): 0.01 | photoluminescence quantum yield (in C1COCCO1): 0.007 | photoluminescence quantum yield (in CC#N): 0.024 | photoluminescence quantum yield (in CCCCCCCCCCCCO): 0.012 | photoluminescence quantum yield (in CCCCCCCCCCO): 0.009 | photoluminescence quantum yield (in CCCCCCCCO): 0.017 | photoluminescence quantum yield (in CCCCCCO): 0.016 | photoluminescence quantum yield (in CCCCO): 0.012 | photoluminescence quantum yield (in CCO): 0.017 | photoluminescence quantum yield (in CCOC(C)=O): 0.018 | photoluminescence quantum yield (in CN(C)C=O): 0.07 | photoluminescence quantum yield (in CO): 0.051 | photoluminescence quantum yield (in CS(C)=O): 0.087 | photoluminescence quantum yield (in Cc1ccccc1): 0.026 | photoluminescence quantum yield (in O): 0.011 | photoluminescence quantum yield (in c1ccccc1): 0.006

SMILES: Cc1ccc(N(c2ccc(C)cc2)c2c3ccccc3c(N(c3ccc(C)cc3)c3ccc(C)cc3)c3ccccc23)cc1
photoluminescence quantum yield (in Cc1ccccc1): 0.95

SMILES: c1ccc(N(c2ccccc2)c2cc3c4c(c2)N(c2ccccc2)c2cc5c(cc2B4c2ccccc2N3c2ccccc2)B2c3ccccc3N(c3ccccc3)c3cc(N(c4ccccc4)c4ccccc4)cc(c32)N5c2ccccc2)cc1
photoluminescence quantum yield (in Cc1ccccc1): 0.74 | photoluminescence quantum yield (in Cc1ccccc1-c1cccc(Oc2cc3c4c(c2)Oc2cc(-c5ccccc5C)ccc2B4c2ccc(-c4ccccc4C)cc2O3)c1): 0.82

SMILES: Cc1ccc2nc3c(=O)[nH]c(=O)[nH]c3nc2c1C
photoluminescence quantum yield (in CC#N): 0.019

SMILES: O=C1c2ccc(N(c3ccc(-c4ccccc4)cc3)c3ccc(-c4ccccc4)cc3)cc2C(=O)c2ccc(N(c3ccc(-c4ccccc4)cc3)c3ccc(-c4ccccc4)cc3)cc21
photoluminescence quantum yield (in Cc1ccccc1): 0.1 | photoluminescence quantum yield (in c1ccc2c(c1)c1ccccc1n2-c1ccc(-c2ccc(-n3c4ccccc4c4ccccc43)cc2)cc1): 0.42

SMILES: Cc1cc(N2c3ccccc3C(C)(C)c3ccccc32)ccc1-c1cc(-c2ccc(N3c4ccccc4C(C)(C)c4ccccc43)cc2C)ncn1
photoluminescence quantum yield (in O=P(c1ccccc1)(c1ccccc1)c1ccccc1Oc1ccccc1P(=O)(c1ccccc1)c1ccccc1): 0.71

SMILES: COc1ccc(/C2=C3N=C(C(c4ccccc4)=C/3c3ccccc3)/C(c3ccc(OC)cc3)=c3\[nH]/c(c(-c4ccccc4)c3-c3ccccc3)=C(/c3ccc(OC)cc3)C3=N/C(=C(/c4ccc(OC)cc4)c4[nH]c2c(-c2ccccc2)c4-c2ccccc2)C(c2ccccc2)=C3c2ccccc2)cc1
photoluminescence quantum yield (in ClCCl): 0.006

SMILES: N#Cc1nc(-c2ccc(N3c4ccccc4Oc4ccccc43)cc2)c(-c2ccc(N3c4ccccc4Oc4ccccc43)cc2)nc1C#N
photoluminescence quantum yield (in c1cc(-c2cccc(-n3c4ccccc4c4ccccc43)c2)cc(-n2c3ccccc3c3ccccc32)c1): 0.15

SMILES: CC(C)(C)c1cc2c(c(C(C)(C)C)c1)O[B-](F)(F)[n+]1c-2nc(-c2ccccc2)c2ccccc21
photoluminescence quantum yield (in Cc1ccccc1): 0.002
